{
  "source": "patent EP4740946A1",
  "about": "“METHOD FOR TREATING PROSTATE CANCER” (Jiangsu Hengrui Pharmaceuticals Co., Ltd., priority 2023, dated 2025)",
  "assay_type_in_all_cases": "in vivo, human",
  "key": {"[1]": {"tested_on": "PSA", "assay": "Phase I clinical study, clinical effectiveness (PSA response)", "description": "(§1) • Incidence, severity (graded according to CTCAE v5.0), and correlation with the study drug of adverse events (AEs) and serious adverse events (SAEs), also including abnormalities in vital signs, electrocardiogram, and laboratory tests; • PK parameters of the compound of formula I after single/multiple administrations, including but not limited to: • single administration parameters: peak plasma concentration (Cmax), time to peak (Tmax), area under the concentration-time curve from time zero to the last detectable concentration time point t (AUC0-t), area under the concentration-time curve from time zero to infinity (AUC0-inf) (if applicable), half-life (t1/2) (if applicable), apparent volume of distribution (Vz/F) (if applicable), and apparent clearance (CL/F) (if applicable); • multiple administration parameters: steady-state peak concentration (Cmax, ss), time to peak (Tmax, ss), steady-state trough concentration (Cmin, ss), area under the steady-state plasma concentration-time curve (AUCss), and drug accumulation ratio (Rac). • Pharmacokinetic (PK) of midazolam: pharmacokinetic parameters of midazolam in patients after administration of a microdose of midazolam before (D-1) and after (D15) multiple oral administrations of the compound of formula I, including: Tmax, Cmax, AUC0-t, AUCO-∞, t1/2, CL/F and Vz/F. • Efficacy endpoints: objective response rate (ORR), disease control rate (DCR), duration of response (DoR), radiographic progression-free survival (rPFS), PSA response rate at week 12, proportions of subjects with a decrease in PSA of ≧50% and ≧30% from baseline throughout study treatment, time to PSA progression, and overall survival (OS).\n(§2) • Tablets were orally administered in preset dose group of 30 mg, 90 mg, 180 mg, 360 mg, 540 mg or 720 mg, with one treatment cycle every 28 days. Administration was continuous until disease progression or the occurrence of unacceptable toxicity. Tablets were orally administered once daily, within 30 minutes after breakfast each morning, for consecutive administration. If intensive PK blood sampling was scheduled on a given day, the subject was forbidden to drink water 1 h and fasted 4 h before and after drug administration.\nA total of 17 subjects in the study received at least one post-baseline PSA test, with 1, 4, 9, and 3 subjects in 30 mg, 90 mg, 180 mg, and 360 mg dose groups, respectively. 8 of 17 subjects evaluable for PSA response experienced a PSA decrease."}, "[2]": {"assay": "Phase I clinical study, clinical safety (DLT, TEAEs, treatment-related AEs)", "description": "• Incidence of dose limiting toxicity (DLT) • MTD (if available) and RP2D;\nas §1, §2\nA total of 26 tumour subjects were enrolled in this study, with 13 subjects in the dose escalation phase. There were 1, 4, 4, 3, and 1 subject(s) in 30 mg, 90 mg, 180 mg, 360 mg, and 540 mg dose groups, respectively. […] One subject was enrolled in the 540 mg dose group and remained in DLT observation, and no dose-limiting toxicity (DLT) was observed. There were 13 subjects in the dose expansion phase, and all were in the 180 mg dose group."}, "[3]": {"assay": "Phase I clinical study, clinical pharmacology: food effect study (fasting vs postprandial pharmacokinetics)", "experimental": "as §2\nThere were a total of 9 patients in the food effect study."}, "[4]": {"conditions": "180 mg oral administration under fasting conditions, patients with mCRPC"}, "[5]": {"conditions": "postprandial absorption compared with fasting state, food effect study"}},
  "data": [
    {"smiles": "C[C@H]1CC2(CCN(c3ccc(C(=O)N4CCC(CN5CCN(c6cccc(N[C@H]7CCC(=O)NC7=O)c6)CC5)CC4)cc3F)CC2)CN1c1ccc(C#N)c(Cl)c1", "note": "[compound of formula I]", "values": [
      {"measurement": "subjects who experienced a PSA decrease", "setting": "[1]; 180 mg dose group, 6 of the 9 subjects", "value": 66.7, "unit": "%"},
      {"measurement": "subjects achieving PSA30 (a reduction in serum PSA level of ≧ 30% from baseline during treatment)", "setting": "[1]; 180 mg dose group, 9 subjects", "value": 3, "unit": "subjects"},
      {"measurement": "subjects achieving PSA90 (a reduction in serum PSA level of ≧ 90% from baseline during treatment)", "setting": "[1]; 180 mg dose group, 9 subjects", "value": 1, "unit": "subject"},
      {"measurement": "subjects who experienced a PSA decrease", "setting": "[1]; of 17 subjects evaluable for PSA response, 30 mg, 90 mg, 180 mg and 360 mg dose groups", "value": 8, "unit": "subjects"},
      {"measurement": "subjects who experienced AEs associated with formula I", "setting": "[2]; 8 of 26 subjects", "value": 30.8, "unit": "%"},
      {"measurement": "subjects who experienced TEAEs", "setting": "[2]; 9 of 26 tumour subjects enrolled", "value": 34.6, "unit": "%"},
      {"measurement": "dose-limiting toxicity (DLT)", "setting": "[2]; dose escalation phase, 13 subjects, 30 mg, 90 mg, 180 mg, 360 mg and 540 mg dose groups, oral once daily", "value": "no DLT was observed"},
      {"measurement": "grade 4/5 AE", "setting": "[2]; during the study, 26 subjects", "value": "No grade 4/5 AE occurred"},
      {"measurement": "subjects who experienced grade 3 TRAE", "setting": "[2]; one of 26 subjects, decreased neutrophil count and decreased white blood cell count", "value": 3.8, "unit": "%"},
      {"measurement": "subjects who experienced grade 3 TEAEs", "setting": "[2]; three of 26 subjects", "value": 11.5, "unit": "%"},
      {"measurement": "geometric mean (% geometric coefficient of variation) of apparent volume of distribution", "setting": "[3]; [4]", "value": "1260 (90.7) L"},
      {"measurement": "geometric mean (% geometric coefficient of variation) of clearance", "setting": "[3]; [4]", "value": "21.5 (83.4) L/h"},
      {"measurement": "median time to peak", "setting": "[3]; [4]", "value": 3, "unit": "h"},
      {"measurement": "half-life", "setting": "[3]; male, human, plasma, 180 mg oral administration under fasting conditions, patients with mCRPC, food effect study (9 patients), read-out: mean half-life (± standard deviation) (converted)", "value": "40.8 ± 4.37", "unit": "h"},
      {"measurement": "AUC, postprandial versus fasting state", "setting": "[3]; [5]", "value": 2.54, "unit": "fold"},
      {"measurement": "Cmax, postprandial versus fasting state", "setting": "[3]; [5]", "value": 3.06, "unit": "fold"},
      {"measurement": "time to peak delayed (postprandial versus fasting)", "setting": "[3]; postprandial compared with fasting state", "value": 3, "unit": "h"},
      {"measurement": "time to peak, postprandial", "setting": "[3]; postprandial state", "value": "about 6 h"}
    ]}
  ]
}
